From patent publication US8895761B2, “4-phenylpyrane-3,5-diones, 4-phenylthiopyrane-3,5-diones and 2-phenylcyclohexane-1,3,5-triones as herbicides” (Syngenta Limited, priority 2007, dated 2014)

Experiments:
Assay type in all cases: in vivo
[1] = system: Setaria faberi (SETFA); test: Pre-emergence herbicidal glasshouse test, Setaria faberi; settings: Setaria faberi, 312 h, rate 250 g/ha, evaluated after 13 days, scale 100 = total damage to plant, 0 = no damage
Protocol: (§1) Seeds of a variety of test species were sown in standard soil in pots. After cultivation for one day (pre-emergence) or after 8 days cultivation (post-emergence) under controlled conditions in a glasshouse (at 24/16° C., day/night; 14 hours light; 65% humidity), the plants were sprayed with an aqueous spray solution derived from the formulation of the technical active ingredient in acetone/water (50:50) solution containing 0.5% Tween 20 (polyoxyethelyene sorbitan monolaurate, CAS RN 9005-64-5). The test plants were then grown in a glasshouse under controlled conditions in a glasshouse (at 24/16° C., day/night; 14 hours light; 65% humidity) and watered twice daily. After 13 days for pre and post-emergence, the test was evaluated ([…] to plant; 0=no damage to plant).
(§2) Setaria faberi (SETFA), Lolium perenne (LOLPE), Alopecurus myosuroides (ALOMY), Echinochloa crus-galli (ECHCG) and Avena fatua (AVEFA).

[2] = system: Alopecurus myosuroides (ALOMY); test: Pre-emergence herbicidal glasshouse test, Alopecurus myosuroides; settings: Alopecurus myosuroides, 312 h, rate 250 g/ha, evaluated after 13 days, scale 100 = total damage to plant, 0 = no damage
How it was run: (§3)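 Seeds were sown in standard soil in pots and sprayed one day after sowing (pre-emergence) or after 8 days' growth (post-emergence). The spray was an aqueous solution from the active ingredient formulated in acetone/water (50:50) with 0.5% Tween 20. Plants grew at 24/16° C. day/night, 14 h light, 65% humidity, watered twice daily. Damage was scored after 13 days on a scale from 0 (no damage) to total damage.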

[3] = system: Echinochloa crus-galli (ECHCG); test: Pre-emergence herbicidal glasshouse test, Echinochloa crus-galli; settings: Echinochloa crus-galli, 312 h, rate 250 g/ha, evaluated after 13 days, scale 100 = total damage to plant, 0 = no damage
How it was run: as §3

[4] = system: Avena fatua (AVEFA); test: Pre-emergence herbicidal glasshouse test, Avena fatua; settings: Avena fatua, 312 h, rate 250 g/ha, evaluated after 13 days, scale 100 = total damage to plant, 0 = no damage
How it was run: as §3

[5] = system: Setaria faberi (SETFA); test: Post-emergence herbicidal glasshouse test, Setaria faberi; settings: Setaria faberi, 312 h, rate 250 g/ha, evaluated after 13 days, scale 100 = total damage to plant, 0 = no damage
Protocol: as §1, §2

[6] = system: Alopecurus myosuroides (ALOMY); test: Post-emergence herbicidal glasshouse test, Alopecurus myosuroides; settings: Alopecurus myosuroides, 312 h, rate 250 g/ha, evaluated after 13 days, scale 100 = total damage to plant, 0 = no damage
How it was run: as §3

[7] = system: Echinochloa crus-galli (ECHCG); test: Post-emergence herbicidal glasshouse test, Echinochloa crus-galli; settings: Echinochloa crus-galli, 312 h, rate 250 g/ha, evaluated after 13 days, scale 100 = total damage to plant, 0 = no damage
How it was run: as §3

[8] = system: Avena fatua (AVEFA); test: Post-emergence herbicidal glasshouse test, Avena fatua; settings: Avena fatua, 312 h, rate 250 g/ha, evaluated after 13 days, scale 100 = total damage to plant, 0 = no damage
How it was run: as §3

[9] = system: Lolium perenne (LOLPE); test: Pre-emergence herbicidal glasshouse test, Lolium perenne; settings: 312 h, rate 250 g/ha, evaluated after 13 days, scale 100 = total damage to plant, 0 = no damage
How it was run: as §3

[10] = system: Lolium perenne (LOLPE); test: Post-emergence herbicidal glasshouse test, Lolium perenne; settings: 312 h, rate 250 g/ha, evaluated after 13 days, scale 100 = total damage to plant, 0 = no damage
How it was run: as §3

Row | Structure (SMILES) | pest or weed control at 250 g/ha [1] | pest or weed control at 250 g/ha [2] | pest or weed control at 250 g/ha [3] | pest or weed control at 250 g/ha [4] | pest or weed control at 250 g/ha [5] | pest or weed control at 250 g/ha [6] | pest or weed control at 250 g/ha [7] | pest or weed control at 250 g/ha [8] | pest or weed control at 250 g/ha [9] | pest or weed control at 250 g/ha [10]
1 | CCc1cc(-c2ccc(Cl)c(Cl)c2)ccc1C1=C(O)[C@@]2(C)CC[C@H](O2)C1=O [Compound A-17] | 100% | 30% | 100% | 80% | 100% | 100% | 100% | 100% |  | 
2 | CCc1cc(-c2ccc(Cl)nc2)ccc1C1=C(O)[C@@]2(C)CC[C@H](O2)C1=O [Compound A-25] | 90% | 30% | 50% | 20% | 100% | 90% | 100% | 60% |  | 
3 | CCc1cc(-c2ccc(F)cc2)ccc1C1=C(OC(=O)C(C)(C)C)C(C)OC(C)(C)C1=O [Compound D-9] |  | 60% | 50% | 0% |  | 70% | 80% | 10% | 90% | 80%
4 | CCc1cc(-c2cc(F)c(F)c(F)c2)ccc1C1=C(O)C(C)(C)S(=O)(=O)C(C)(C)C1=O [Compound B-18] |  | 30% | 30% | 30% |  | 70% | 80% | 90% | 50% | 80%
5 | CC1(C)OC(C)(C)C(O)=C(c2ccc(-c3ccc(F)cc3)cc2OC(F)(F)F)C1=O [Compound A-135] |  | 30% | 30% | 10% |  | 60% | 100% | 10% | 10% | 60%
6 | CCc1cc(-c2ccc(F)c(OC)c2)ccc1C1=C(O)C(C)(COC)OC(C)(C)C1=O (centres unmarked) [Compound A-112] |  | 80% | 100% | 80% |  | 80% | 100% | 80% | 90% | 90%
7 | CCc1cc(-c2ccc(F)c(F)c2)ccc1C1=C(O)C(C)(CC)OC(C)(CC)C1=O (centres unmarked) [Compound A-129] |  | 30% | 90% | 10% |  | 90% | 90% | 70% | 30% | 80%
8 | CCc1cc(-c2ccc(F)cc2)ccc1C1=C(O)C(C)(COC)OC(C)(C)C1=O (centres unmarked) [Compound A-101] |  | 70% | 50% | 50% |  | 100% | 100% | 100% | 90% | 100%
9 | CCc1cc(-c2ccc(F)cc2F)ccc1C1=C(O)C(C)(C)OC(C)(C)C1=O [Compound A-82] |  | 10% | 30% | 20% |  | 80% | 80% | 0% | 70% | 80%
10 | CCc1cc(-c2ccc(F)c(F)c2F)ccc1C1=C(O)C(C)(C)SC(C)(C)C1=O [Compound B-9] |  | 10% | 0% | 0% |  | 60% | 40% | 80% | 10% | 60%
11 | CCc1cc(-c2ccc(Cl)c(C)c2)ccc1C1=C(O)C(C)(C)OC(C)(C)C1=O [Compound A-52] |  | 0% | 20% | 0% |  | 40% | 70% | 20% | 0% | 40%
12 | CCc1cc(-c2ccc(F)c(Cl)c2)ccc1C1=C(O)C(C)(C)OC(C)(C)C1=O [Compound A-76] |  | 0% | 0% | 0% |  | 80% | 70% | 40% | 0% | 80%
13 | CCc1cc(-c2cc(Cl)ccc2OC)ccc1C1=C(O)C(C)(C)OC(C)(C)C1=O [Compound A-74] |  | 0% | 0% | 0% |  | 80% | 100% | 40% | 0% | 70%
14 | CCc1cc(-c2cc(F)c(F)cc2F)ccc1C1=C(O)C(C)(CC)OC(C)(C)C1=O (centres unmarked) [Compound A-122] |  | 20% | 10% | 0% |  | 90% | 70% | 30% | 0% | 70%
15 | CCc1cc(-c2cccc(OC)c2)ccc1C1=C(O)C(C)(C)OC(C)(C)C1=O [Compound A-71] |  | 0% | 0% | 0% |  | 30% | 80% | 0% | 0% | 80%
16 | CCc1cc(-c2ccccc2)ccc1C1=C(O)C(C)(C)OC(C)(C)C1=O [Compound A-96] |  | 0% | 20% | 10% |  | 80% | 90% | 10% | 0% | 80%
17 | CCc1cc(-c2ccc(F)c(F)c2)ccc1C1=C(O)C(C)(C)OC(C)(C)C1=O [Compound A-75] |  | 0% | 0% | 30% |  | 90% | 100% | 90% | 40% | 100%
18 | CCc1cc(-c2ccc(Cl)cc2F)ccc1C1=C(O)C(C)(C)OC(C)(C)C1=O [Compound A-51] |  | 0% | 20% | 0% |  | 60% | 70% | 60% | 0% | 50%
19 | CCc1cc(-c2ccc(Cl)cc2Cl)cc(CC)c1C1=C(O)[C@@]2(C)CC[C@H](O2)C1=O (relative stereo) [Compound A-34] |  |  |  |  | 90% | 30% | 70% | 20% |  | 
20 | CCc1cc(-c2ccc(F)c(F)c2)ccc1C1=C(O)C(C)(CC)OC(C)(C)C1=O (centres unmarked) [Compound A-119] |  | 40% | 30% | 10% |  | 100% | 100% | 90% | 60% | 90%
21 | CCc1cc(-c2cc(Cl)cc(C(F)(F)F)c2)ccc1C1=C(O)C(C)(C)OC(C)(C)C1=O [Compound A-83] |  | 0% | 0% | 0% |  | 80% | 80% | 50% | 0% | 70%
